Measurements: patent publication US20160303095A1, “METHODS OF TREATING HEPATITIS B VIRUS” (Gilead Sciences, Inc., priority 2015, published 2016)
Where two headings read alike, the source gives them in different places.

Experiments:
[1] = target: T1, KDM5C (Homo sapiens, UniProt P41229); test: Biochemical KDM inhibition assay (LANCE), KDM5C; conditions: read-out: Biochemical IC50 KDM 5C
T1 construct: host or cells: Sf9 cells
Method: (§1) Representative compounds were characterized for their inhibition of KDM5 using biotinylated histone substrates. Inhibition was measured in vitro (CEREP Poitier, Le Bois l'Evêque, France) following experimental conditions described in Table 2. Briefly, the test compound, reference compound or water (control) was mixed with about 2-20 ng of recombinant, Human enzymes expressed in Sf9 cells in a buffer containing 45 mM Hepes/Tris (pH 7), 5 μM FAS, 100 μM ascorbic acid, 10 μM 2-oxoglutarate, 0.01% Tween 20 and 0.01% BSA. Thereafter, the reaction was initiated by adding the biotin-labeled substrate, and the mixture was incubated for 10-30 min at room temperature. For basal control measurements, the enzyme was omitted from the reaction mixture. Following incubation the reaction was stopped by adding 1 mM EDTA. After 5 min, the anti-methyl histone antibody labeled with europium chelate and the Ulight streptavidine (Perkin Elmer Waltham, Mass.) were added. After 60 min more, the fluorescence transfer was measured at λex=320 nm and λem=620 and λem=665 nm using a microplate reader (Envision, Perkin Elmer) (LANCE). The enzyme activity was determined by dividing the signal measured at λem=665 nm by that measured at 620 nm (ratio).

[2] = target: T2, KDM5D (Homo sapiens, UniProt Q9BY66); test: Biochemical KDM inhibition assay (LANCE), KDM5D; conditions: read-out: Biochemical IC50 KDM 5D
T2 construct: host or cells: Sf9 cells
Method: as §1

[3] = target: T3, KDM5B (Homo sapiens, UniProt Q9UGL1); test: Biochemical KDM inhibition assay (LANCE), KDM5B; conditions: read-out: Biochemical IC50 KDM 5B
T3 construct: host or cells: Sf9 cells
Method: as §1

[4] = target: T4, KDM4E (Homo sapiens, UniProt B2RXH2); test: Biochemical KDM inhibition assay (LANCE), KDM4E; conditions: read-out: Biochemical IC50 KDM 4E
T4 construct: host or cells: Sf9 cells
T4 sequence (B2RXH2 1-506): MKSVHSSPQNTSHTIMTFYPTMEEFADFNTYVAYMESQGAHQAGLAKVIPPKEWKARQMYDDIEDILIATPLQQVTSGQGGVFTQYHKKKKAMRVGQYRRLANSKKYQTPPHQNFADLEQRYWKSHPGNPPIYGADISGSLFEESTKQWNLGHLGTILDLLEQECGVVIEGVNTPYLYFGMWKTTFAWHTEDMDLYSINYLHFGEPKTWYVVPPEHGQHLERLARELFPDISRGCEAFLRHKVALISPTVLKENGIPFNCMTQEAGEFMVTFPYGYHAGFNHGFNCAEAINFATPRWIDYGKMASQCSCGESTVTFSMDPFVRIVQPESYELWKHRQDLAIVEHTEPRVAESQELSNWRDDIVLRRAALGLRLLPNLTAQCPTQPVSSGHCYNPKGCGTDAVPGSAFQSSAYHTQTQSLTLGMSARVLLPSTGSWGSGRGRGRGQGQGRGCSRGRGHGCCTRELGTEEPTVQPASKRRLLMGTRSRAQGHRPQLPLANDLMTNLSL

[5] = test system: HBV; test: PHH screening protocol: HBsAg and HBeAg levels by MSD ELISA; type: cell-based, Hepatitis B Virus; conditions: for EC50: Hepatitis B virus; for time dependency of anti HBV activity: PHH donor 8181 infected with patient virus 21p (GTA)
Method: HBV antiviral activity was assessed in primary human hepatocytes (PHH) in a 96-well format. PHH were (Life Technologies, Chicago, 11) plated on collagen coated tissue culture plates using Plating Media containing William's Medium E supplemented with 1% Penicillin/Streptomycin, 4 μg/mL human recombinant insulin, 2 mM glutamax, 15 mM Hepes, 1 μM dexamethasone and 5% fetal bovine serum (Life Technologies, Cat#A12176-01 Life Technologies, Chicago, Ill.). After a 4-hour incubation at 37° C., cells were switched to Maintenance Media (Cat#CM4000-A15564 Life Technologies, Chicago, Ill.) containing William's Medium E supplemented with 0.5% Penicillin/Streptomycin, 6.25 μg/mL human recombinant insulin, 6.25 μg/mL human transferrin, 6.25 ng/mL selenous acid, 1.25 mg/mL bovine serum albumin, 5.35 μg/mL linoleic acid, 2 mM glutamax, 15 mM Hepes, 0.1 μM dexamethasone, 2% fetal bovine serum, and 2% DMSO (Cat#D2650 Sigma, St. Louis, Mo.). On the next day, cells were infected with approximately 500 genome equivalent of selected HBV clinical isolates (21P (GTA), 32P (GTA), 91P (GTA), AD38 (GTD), 65P (GTD) or 30P (GTE); ProteoGenex, Culver City, Calif.) per cell in Maintenance Media supplemented with 4% PEG 8000 (Cat#V3011 Promega, Madison, Wis.). After 24 hour incubation cells were washed three times with William's Medium E and fed with fresh Maintenance Media. Small molecule inhibitors targeting KDMs were serially diluted in Maintenance Media and added to cells at 3 days post infection (p.i.). Media with compounds was replenished every 2-3 days. Media collected on various days was used for determination of HBsAg and HBeAg levels by MSD ELISA, and HBV RNA by qPCR. All data were converted into percentages of the untreated control and non-linear regression was performed to calculate EC50 or CC50 values.

[6] = Alamar Blue cell viability assay; type: cell-based; conditions: human
Method: Alamar Blue cell viability reagent (Cat#DAL1100 Life Technologies, Chicago, Ill.) was diluted 1 to 10 in Maintenance Media and added to the cells. Cells were incubated for 4 h at 37° C. and the fluorescence signal, which is proportional to the number of live cells, was read using a fluorimeter with excitation/emission spectra set at 560/590 nm, respectively. Data were converted into percentages of the untreated control and non-linear regression was performed to calculate CC50 values.
PHH were plated in collagen coated tissue culture plates in Plating Media and after 4-hour incubation at 37° C., cells were switched to Maintenance Media. On the next day, the cells were infected with 500 genome equivalents per cell of Genotype-A clinical isolate 21P (ProteoGenex, Culver City, Calif.) in 100 μl Maintenance Media supplemented with 4% PEG 8000 (Cat#V3011 Promega, Madison, Wis.). After an overnight incubation the inoculum was removed and the cells were washed three times with William's Media E and maintained in Maintenance Media. […] Following the transfection, the cells were incubated at 37° C. in a humidified incubator and media was changed every 3-4 days. The assay was terminated on day 14 post infection and cell viability was assessed by Alamar Blue. The collected medium was used for determination of HBsAg and HBeAg levels by MSD ELISA while cells were processed for determination of HBV RNA using qPCR.

[7] = read-out: HBeAg EC50, D 8, PHH donor 8181, virus 21p
[8] = read-out: HBeAg EC50, D 13, PHH donor 8181, virus 21p
[9] = read-out: HBeAg EC50, D 17, PHH donor 8181, virus 21p
[10] = read-out: HBeAg EC50, D 22, PHH donor 8181, virus 21p
[11] = read-out: HBeAg EC50, D 27, PHH donor 8181, virus 21p
[12] = read-out: HBeAg EC50, HBV-infected PHH
[13] = read-out: HBsAg EC50, D 8, PHH donor 8181, virus 21p
[14] = read-out: HBsAg EC50, D 13, PHH donor 8181, virus 21p
[15] = read-out: HBsAg EC50, D 17, PHH donor 8181, virus 21p
[16] = read-out: HBsAg EC50, D 22, PHH donor 8181, virus 21p
[17] = read-out: HBsAg EC50, D 27, PHH donor 8181, virus 21p
[18] = read-out: HBsAg EC50, HBV-infected PHH

T2 sequence (Q9BY66 whole entry): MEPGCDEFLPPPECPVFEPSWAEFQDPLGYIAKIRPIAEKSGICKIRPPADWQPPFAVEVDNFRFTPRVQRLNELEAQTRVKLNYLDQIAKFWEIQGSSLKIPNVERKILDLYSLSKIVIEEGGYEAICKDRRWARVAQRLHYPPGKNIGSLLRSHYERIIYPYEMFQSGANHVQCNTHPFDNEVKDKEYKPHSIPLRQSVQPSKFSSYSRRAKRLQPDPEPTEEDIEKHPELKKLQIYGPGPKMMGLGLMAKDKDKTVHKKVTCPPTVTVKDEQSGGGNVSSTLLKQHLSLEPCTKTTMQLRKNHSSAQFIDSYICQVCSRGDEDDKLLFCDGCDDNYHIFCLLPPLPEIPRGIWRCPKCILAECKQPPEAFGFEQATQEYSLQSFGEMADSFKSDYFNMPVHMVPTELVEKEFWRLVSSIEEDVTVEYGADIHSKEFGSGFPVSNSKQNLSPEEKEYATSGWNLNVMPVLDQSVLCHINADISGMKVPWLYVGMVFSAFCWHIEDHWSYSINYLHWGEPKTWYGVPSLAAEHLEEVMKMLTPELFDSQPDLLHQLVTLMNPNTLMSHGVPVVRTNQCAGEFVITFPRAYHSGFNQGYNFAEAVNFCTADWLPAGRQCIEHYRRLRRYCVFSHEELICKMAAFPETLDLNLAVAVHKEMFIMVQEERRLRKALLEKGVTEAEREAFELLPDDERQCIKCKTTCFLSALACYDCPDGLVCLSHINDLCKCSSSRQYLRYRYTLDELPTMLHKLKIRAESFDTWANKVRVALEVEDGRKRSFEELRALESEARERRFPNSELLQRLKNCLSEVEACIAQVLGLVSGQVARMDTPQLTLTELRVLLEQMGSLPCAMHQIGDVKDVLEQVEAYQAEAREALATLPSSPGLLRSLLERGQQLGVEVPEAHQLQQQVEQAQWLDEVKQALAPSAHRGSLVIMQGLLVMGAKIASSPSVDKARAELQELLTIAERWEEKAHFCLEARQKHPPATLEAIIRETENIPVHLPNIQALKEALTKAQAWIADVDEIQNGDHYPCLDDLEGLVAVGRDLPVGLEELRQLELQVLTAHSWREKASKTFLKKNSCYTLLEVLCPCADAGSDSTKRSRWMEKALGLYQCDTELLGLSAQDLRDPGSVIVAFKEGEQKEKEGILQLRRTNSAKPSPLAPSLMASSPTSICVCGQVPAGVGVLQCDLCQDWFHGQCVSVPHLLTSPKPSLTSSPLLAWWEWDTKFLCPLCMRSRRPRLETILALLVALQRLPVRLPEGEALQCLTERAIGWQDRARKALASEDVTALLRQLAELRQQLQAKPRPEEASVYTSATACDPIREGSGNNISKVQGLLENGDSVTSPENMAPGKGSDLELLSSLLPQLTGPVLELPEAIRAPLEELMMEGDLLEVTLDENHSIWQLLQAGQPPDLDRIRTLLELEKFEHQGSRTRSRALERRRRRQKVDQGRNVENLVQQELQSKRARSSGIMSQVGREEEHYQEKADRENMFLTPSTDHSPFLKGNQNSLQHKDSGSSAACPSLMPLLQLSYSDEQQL
T3 sequence (Q9UGL1 whole entry): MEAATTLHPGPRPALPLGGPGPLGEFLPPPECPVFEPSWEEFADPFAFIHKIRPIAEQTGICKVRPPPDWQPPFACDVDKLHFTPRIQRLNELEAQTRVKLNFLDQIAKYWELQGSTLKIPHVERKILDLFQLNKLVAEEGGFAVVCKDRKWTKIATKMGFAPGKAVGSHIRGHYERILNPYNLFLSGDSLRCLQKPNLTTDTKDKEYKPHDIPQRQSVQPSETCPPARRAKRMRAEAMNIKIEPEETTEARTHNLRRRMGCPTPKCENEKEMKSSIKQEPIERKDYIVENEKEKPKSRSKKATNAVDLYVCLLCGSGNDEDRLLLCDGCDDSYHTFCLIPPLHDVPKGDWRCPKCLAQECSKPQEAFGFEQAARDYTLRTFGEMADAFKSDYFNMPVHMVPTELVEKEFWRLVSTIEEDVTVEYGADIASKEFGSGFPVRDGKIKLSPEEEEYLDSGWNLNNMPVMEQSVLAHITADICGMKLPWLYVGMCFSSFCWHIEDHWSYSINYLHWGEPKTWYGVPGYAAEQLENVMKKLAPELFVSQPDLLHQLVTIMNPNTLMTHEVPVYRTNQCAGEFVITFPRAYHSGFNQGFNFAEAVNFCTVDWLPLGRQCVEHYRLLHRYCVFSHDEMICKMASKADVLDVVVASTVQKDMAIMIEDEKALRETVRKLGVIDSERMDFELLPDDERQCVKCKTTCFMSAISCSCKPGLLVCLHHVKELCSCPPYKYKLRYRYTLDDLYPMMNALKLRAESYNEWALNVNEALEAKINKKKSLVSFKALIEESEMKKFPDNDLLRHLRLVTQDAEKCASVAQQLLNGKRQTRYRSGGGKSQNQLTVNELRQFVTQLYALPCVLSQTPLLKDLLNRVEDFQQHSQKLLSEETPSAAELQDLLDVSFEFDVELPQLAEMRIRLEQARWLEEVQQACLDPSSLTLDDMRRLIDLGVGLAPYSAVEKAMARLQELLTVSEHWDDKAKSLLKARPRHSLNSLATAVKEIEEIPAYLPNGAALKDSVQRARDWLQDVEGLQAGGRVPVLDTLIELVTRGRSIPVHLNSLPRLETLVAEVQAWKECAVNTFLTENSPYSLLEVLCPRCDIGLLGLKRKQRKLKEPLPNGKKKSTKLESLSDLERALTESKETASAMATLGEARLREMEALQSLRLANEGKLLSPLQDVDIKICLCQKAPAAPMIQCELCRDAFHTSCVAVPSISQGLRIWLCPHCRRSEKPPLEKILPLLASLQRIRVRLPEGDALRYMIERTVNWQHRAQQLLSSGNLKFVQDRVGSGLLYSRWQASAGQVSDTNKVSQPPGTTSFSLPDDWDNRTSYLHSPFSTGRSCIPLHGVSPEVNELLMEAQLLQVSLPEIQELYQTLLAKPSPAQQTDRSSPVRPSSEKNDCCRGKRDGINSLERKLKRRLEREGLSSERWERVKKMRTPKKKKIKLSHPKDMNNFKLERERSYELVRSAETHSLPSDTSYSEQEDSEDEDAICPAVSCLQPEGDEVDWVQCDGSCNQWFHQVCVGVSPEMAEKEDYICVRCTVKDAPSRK
T1 sequence (P41229 whole entry): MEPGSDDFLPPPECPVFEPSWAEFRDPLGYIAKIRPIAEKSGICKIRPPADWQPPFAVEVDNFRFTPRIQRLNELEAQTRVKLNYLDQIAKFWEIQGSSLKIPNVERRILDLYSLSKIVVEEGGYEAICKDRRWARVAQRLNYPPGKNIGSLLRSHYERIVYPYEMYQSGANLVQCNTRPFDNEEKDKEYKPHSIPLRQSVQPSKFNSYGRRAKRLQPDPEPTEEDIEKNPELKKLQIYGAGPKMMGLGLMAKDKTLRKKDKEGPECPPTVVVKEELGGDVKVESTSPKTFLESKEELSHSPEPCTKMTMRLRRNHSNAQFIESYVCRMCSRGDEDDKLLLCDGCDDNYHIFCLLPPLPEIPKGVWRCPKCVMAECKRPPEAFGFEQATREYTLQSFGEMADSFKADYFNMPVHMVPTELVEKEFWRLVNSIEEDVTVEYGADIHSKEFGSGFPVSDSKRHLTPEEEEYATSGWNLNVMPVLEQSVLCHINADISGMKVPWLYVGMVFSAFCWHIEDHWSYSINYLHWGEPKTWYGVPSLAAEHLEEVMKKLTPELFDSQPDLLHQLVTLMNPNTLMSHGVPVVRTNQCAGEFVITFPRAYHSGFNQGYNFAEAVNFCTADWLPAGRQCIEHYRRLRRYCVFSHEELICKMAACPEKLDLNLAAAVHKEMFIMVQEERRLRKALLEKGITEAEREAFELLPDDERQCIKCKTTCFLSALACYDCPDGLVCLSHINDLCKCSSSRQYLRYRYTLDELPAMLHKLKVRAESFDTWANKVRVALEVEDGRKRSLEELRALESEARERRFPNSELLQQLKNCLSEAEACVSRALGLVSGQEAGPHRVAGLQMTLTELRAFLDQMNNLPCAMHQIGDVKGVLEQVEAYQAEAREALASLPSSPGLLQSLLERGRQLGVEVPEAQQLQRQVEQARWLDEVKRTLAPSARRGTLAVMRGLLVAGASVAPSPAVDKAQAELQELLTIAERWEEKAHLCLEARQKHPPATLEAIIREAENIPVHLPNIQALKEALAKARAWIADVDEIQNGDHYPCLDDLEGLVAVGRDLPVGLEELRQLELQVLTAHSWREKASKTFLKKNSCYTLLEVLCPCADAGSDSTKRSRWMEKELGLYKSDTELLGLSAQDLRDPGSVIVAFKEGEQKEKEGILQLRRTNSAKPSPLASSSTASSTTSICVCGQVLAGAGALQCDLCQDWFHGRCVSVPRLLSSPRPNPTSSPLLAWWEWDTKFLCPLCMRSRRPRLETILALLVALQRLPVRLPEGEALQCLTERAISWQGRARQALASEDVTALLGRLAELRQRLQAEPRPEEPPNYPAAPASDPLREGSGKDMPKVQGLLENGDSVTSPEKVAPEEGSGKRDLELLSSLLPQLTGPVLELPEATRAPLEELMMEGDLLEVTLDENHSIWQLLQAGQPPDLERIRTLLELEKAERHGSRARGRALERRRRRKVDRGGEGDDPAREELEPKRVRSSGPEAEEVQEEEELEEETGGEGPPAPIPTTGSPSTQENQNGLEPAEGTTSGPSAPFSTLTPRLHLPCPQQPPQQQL

Compound	IC50 [1] [nM]	IC50 [2] [nM]	IC50 [3] [nM]	IC50 [4] [nM]	EC50 [5, 7] [nM]	EC50 [5, 8] [nM]	EC50 [5, 9] [nM]	EC50 [5, 10] [nM]	EC50 [5, 11] [nM]	EC50 ([5]; read-out: HBeAg EC50, D 31, PHH donor 8181, virus 21p) [nM]	EC50 [5, 12] [nM]	EC50 [5, 13] [nM]	EC50 [5, 14] [nM]	EC50 [5, 15] [nM]	EC50 [5, 16] [nM]	EC50 [5, 17] [nM]	EC50 ([5]; read-out: HBsAg EC50, D 31, PHH donor 8181, virus 21p) [nM]	EC50 [5, 18] [nM]	time dependency of anti HBV activity [5]	CC50 [6] [nM]
Nc1c(C(=O)O)ccnc1C(=O)O [Example 7, reference compound]	540	700	510	64	> 50000	4030	1100	90	60	60	642	> 50000	990	580	70	60	60	481	time dependent	≥ 100000
CCN(CCN(C)C)C(=O)CNCc1cc(C(=O)O)ccn1 [Example 9]	26	66	14	35	> 100000	849	267	153	300	–	1630	> 100000	2330	369	200	400	–	2020	time dependent	≥ 50000
Cc1cc(Cl)ccc1COc1ccnn1-c1cc(C(=O)O)ccn1 [Example 11]	270	98	36	110	–	–	–	–	–	–	5770	–	–	–	–	–	–	4050	–	≥ 50000
O=C(O)c1ccncc1Nc1nn(CCN2CCC(F)(F)CC2)c2ccc(F)cc12 [Example 13]	86	65	21	670	–	–	–	–	–	–	5970	–	–	–	–	–	–	3980	–	≥ 50000
N#CNC(=O)c1ccncc1Nc1nn(CCN2CCC(F)(F)CC2)c2ccc(F)cc12 [Example 14]	240	85	14	2300	–	–	–	–	–	–	1090	–	–	–	–	–	–	1300	–	≥ 50000
CCN(CC)CCCCNCc1cc(C(=O)O)ccn1 [Example 18]	21	33	3.1	1200	–	–	–	–	–	–	22600	–	–	–	–	–	–	19500	–	–
